Data reported in patent US5817012A, “Method of determining an analyte” (Sudormed, Inc., priority 1997, dated 1998).
Several values for one entry are separate records, joined by “and”; a condition that tells them apart may be missing. Equal values may be shown once. Entries after “also recorded” stand apart in the source; their conditions may differ. Where a name gives a salt, the structure may show the parent alone.

Assays:
[1] = Table 2; weak bases (Wilson, J., Abused Drugs, 1990); cited from earlier work
[2] = Example 6: cocaine collected on patch converted to BE and analyzed with Roche RIA; conditions: seven days wear, subject who ingested cocaine, pH 11, 20 minutes
Source text: Absorption disks, 3/8 inch in diameter, are cut from Gelman membranes (Gelman 0.45μ (SU-450) Ultrabind Supported Membranes). These 3/8 inch disks are mounted at the center of a 1/4 inch diameter hole cut in the center of a one inch diameter circle of Tegaderm 1625 Transparent Dressing (available from Minnesota Mining and Manufacturing, St. Paul, Minn.) to form a patch.
The patches remain in place until they are removed seven days later from each subject.
Following elution, the analyte solutions derived from each of the patches are brought to a pH of 11 by the addition of NaOH to each of the solutions. The solutions are reacted for 20 minutes at pH 11 and at room temperature, after which the solutions are neutralized with HCl.

[3] = cited from earlier work
[4] = Example 12: amount of cocaine recovered on patch after nasal ingestion; conditions: 126 mg nasally ingested; about 200 hours wear; 10 cm^2 disk
[5] = in vivo; cited from earlier work
[6] = FIG. 14: cocaine in dermal patches after smoked cocaine; conditions: 42 mg smoked
[7] = FIG. 13: cocaine in dermal patches after intravenous cocaine HCl; conditions: 32 mg cocaine HCl intravenously
Procedure: A dermal patch was then immediately placed on the subject's skin, and after 30 minutes this patch was removed and replaced by a new patch.

[8] = assay type: in vivo, human; conditions: 60 mg codeine phosphate P.O.; first six hours; heating pad
Procedure: FIG. 16 is a graph depicting the results of an experiment in which a subject was administered codeine and a dermal patch was then placed on each of the subject's thighs. A heating pad which was heated to 105° F. was then placed over one thigh while the other thigh remained unheated. The patches were replaced each hour for six hours, and a final pair of patches was placed on the subject's thighs for one hour between 24 and 25 hours after the administration of the codeine.
Active perspiration can be caused by an increase in the body's temperature,such as during exercise. A further experiment was therefore conducted to see whether an increase in the temperature of only one area of the body could cause localized active perspiration. In this experiment, a subject was administered 60 mg of codeine phosphate (in the form of Naldecon CX P.O., 30 ml), and a dermal patch was then placed on each of the subject's thighs. A heating pad which was heated to 105° F. was then placed over one thigh while the other thigh remained unheated. The patches were replaced each hour for six hours, and a final pair of patches was placed on the subject's thighs for one hour between 24 and 25 hours after the administration of the codeine.

[9] = Example 20: codeine level in urine, Tegaderm-only patches and patches with absorbent material (Table 3); assay type: in vivo, human
Source text: Five patches comprising only Tegaderm™ 1625 wound dressing were applied to a subject. […] Six patches comprising Tegaderm™ 1625 and another absorbent material were also applied to the subject at the same time. The collection surface area of the absorbent material in these patches was 14 cm^2. Prior to applying each of the patches, the area of skin under each patch was first swabbed with alcohol in order to remove any contaminants present on the surface of the skin.
Twenty-four hours after the initial application of the patches to the subject, a pre-dose urine specimen and one of each of the two patch types were collected. The subject then orally consumed 60 mg of codeine phosphate (30 ml. Naldecon CX-60). This represents a typical codeine dose. At 30 and 48 hours post-dose, urine and one of each type of patch were collected.

[10] = literature (Schwartz; Martindale); cited from earlier work
[11] = assay type: in vivo, human; conditions: seven days wear, subject who smoked a marijuana cigarette
Procedure: THC polyclonal antibody from sheep (available from Biogenesis, Bournmouth, England) is diluted 1:100 in PBS (pH 7.5). The antibodies are bound to Gelman 0.45μ (SU-450) Ultrabind Supported Membrane, following the protocol in Gelman Original Equipment Manufacturer application P.N. 31,084. The membranes are air dried. Disks, 3/8 inch in diameter, are cut from the coated Gelman membranes.
Each of the removed membranes is flushed five times with 300 μl of 0.2% Tween 20 in PBS. The membranes are incubated for 30 minutes in 100 μl of E-Z Screen Cannabinoid enzyme conjugate from the E-Z Screen Test Kit (available from Environmental Diagnostics, Inc., Burlington, N.C.).
After incubation, each membrane is flushed three times with 300 μl of 0.2% Tween 20 in PBS, followed by three flushes with PBS alone. The membranes are then incubated in TMB Membrane Peroxide Substrate (available from Kirkegaard & Perry Labs, Gaithersburg, Md.) for 10 minutes. A light blue background appears in all six membranes. […] No white dots appear on the three membranes taken from the subject who has never used marijuana.

In the case of `CC(N)Cc1ccccc1` (stereo not drawn) [Amphetamine], the pKa [1] is given as 9.8.

For `CN1[C@H]2CC[C@@H]1[C@@H](C(=O)O)[C@@H](OC(=O)c1ccccc1)C2` [BE, benzoylecgonine], the “diagnostic analysis for BE in patch extract” value [2] was “tests positive” and the “concentration of BE in the subject's urine over time” value (in vivo) was “declining”.

In the case of `COC(=O)[C@H]1[C@@H](OC(=O)c2ccccc2)C[C@@H]2CC[C@H]1N2C` [Cocaine], the “stability at pH values higher than 7” value [3] is listed as “unstable”, the “cocaine recovered on the patch” value [4] is listed as “approximately 500 ng” and the “cocaine recovered on the patch (in parentheses)” value [4] is listed as ~0.5 mg. The “presence in perspiration and urine” value [5] was “present in perspiration but not in urine”, the “cocaine concentration in patch, 8 to 24 hours” value ([6]; patch wet with perspiration, worn 8 to 24 hours) was “a significant rise in concentration” and the “cocaine concentration in patch, 4 to 8 hours” value ([6]; patch worn between 4 and 8 hours) was “a decline”. The “analyte in patch worn 8 to 24 hours compared to patch worn 2 to 4 hours” value ([6]; subject actively perspired) was “significantly more analyte diffused into the patch worn between 8 and 24 hours”, the back-diffusion from patch (almost 200 hours) was “without exhibiting significant back-diffusion; also recorded: significant back-diffusion was prevented” and the “concentration of cocaine on the dermal patch over time” value (almost 200 hours after ingestion, no specific binding chemistry) was “rose immediately during the first hours of the test, and thereafter stayed at approximately the same level for the remaining 200 hours”. For the same molecule, the “concentration of cocaine in perspiration after the fourth hour” value [7] was “a steady decline”.

With `COc1ccc2c3c1O[C@H]1[C@@H](O)C=C[C@H]4[C@@H](C2)N(C)CC[C@@]341` [Codeine, codeine] the “analyte in patches, heated versus unheated thigh” value [8] was “contained more analyte than the patches on the unheated thigh”, the “ratio of recovered codeine in the Tegaderm-only patches compared to the patches with an absorbent material” value ([9]; 24.4/18.1) was 136% and the “mean codeine level, all five patches having another absorbent material” value ([9]; 30 and 48 hours post-dose) was 18.1 ng/mL. The “mean codeine level, all four Tegaderm-only patches” value ([9]; 30 and 48 hours post-dose) was 24.4 ng/mL, the “Codeine Level, patch with absorbent material” value (shortened to “Codeine Level, patch”) ([9]; 30 hours post-dose, 60 mg codeine phosphate orally, 14 cm^2) was 12.40 ng/mL and 23.99 ng/mL and the “urine codeine level” value ([9]; 48 hours post-dose) was “returned to baseline”. For the same molecule, the “Codeine Level, urine sample” value ([9]; 48 hours post-dose, 60 mg codeine phosphate orally) was 0 ng/mL, the “Codeine Level, patch” value ([9]; 48 hours post-dose, 60 mg codeine phosphate orally, 14 cm^2) was 14.39 ng/mL and 19.41 ng/mL and 20.17 ng/mL and the “Codeine Level, Tegaderm-only patch” value ([9]; 48 hours post-dose, 60 mg codeine phosphate orally, 42 cm^2) was 17.69 ng/mL and 23.19 ng/mL. The concentration at 30 h ([9]; human, urine, po, 30 hours post-dose, 60 mg codeine phosphate orally, read-out: Codeine Level, urine sample) was 620 ng/mL, the “retention of codeine by both patch designs” value ([9]; in vivo) was “about 48 hours” and the “pre-dose presence of codeine” value ([9]; pre-dose urine and patch specimens) was “no codeine was present”. For the same molecule, the “Codeine Level, Tegaderm-only patch” value ([9]; predose) was 0 ng/mL, the “Codeine Level, patch” value ([9]; predose) was 0 ng/mL and the “Codeine Level, urine sample” value ([9]; predose) was 0 ng/mL.

In the case of `CCN(CC)C(=O)[C@@H]1C=C2c3cccc4[nH]cc(c34)C[C@H]2N(C)C1` [LSD], the protection from light [10] is listed as “must be kept from exposure to strong light”.

For `CN[C@@H](C)Cc1ccccc1` [Methamphetamine], the pKa [1] is given as 9.9.

In the case of `c1ccc(C2(N3CCCCC3)CCCCC2)cc1` [Phencyclidine], the pKa [1] is given as 8.5.

With `CCCCCc1cc(O)c2c(c1)OC(C)(C)[C@@H]1CCC(C)=C[C@@H]21` [THC, tetrahydrocannabinol] the “appearance of white dots on membranes (THC derivatives in sweat)” value [11] was “White dots appear over the background on the three membranes”.

For `COC(=O)[C@H]1[C@@H](OC(=O)c2ccccc2)C[C@@H]2CC[C@H]1N2C` [cocaine hydrochloride], the protection from light [10] is listed as “require protection from light”.
